pIC50: −log10 of the molar value.

DNA-dependent protein kinase catalytic subunit, sequence (P78527 whole entry): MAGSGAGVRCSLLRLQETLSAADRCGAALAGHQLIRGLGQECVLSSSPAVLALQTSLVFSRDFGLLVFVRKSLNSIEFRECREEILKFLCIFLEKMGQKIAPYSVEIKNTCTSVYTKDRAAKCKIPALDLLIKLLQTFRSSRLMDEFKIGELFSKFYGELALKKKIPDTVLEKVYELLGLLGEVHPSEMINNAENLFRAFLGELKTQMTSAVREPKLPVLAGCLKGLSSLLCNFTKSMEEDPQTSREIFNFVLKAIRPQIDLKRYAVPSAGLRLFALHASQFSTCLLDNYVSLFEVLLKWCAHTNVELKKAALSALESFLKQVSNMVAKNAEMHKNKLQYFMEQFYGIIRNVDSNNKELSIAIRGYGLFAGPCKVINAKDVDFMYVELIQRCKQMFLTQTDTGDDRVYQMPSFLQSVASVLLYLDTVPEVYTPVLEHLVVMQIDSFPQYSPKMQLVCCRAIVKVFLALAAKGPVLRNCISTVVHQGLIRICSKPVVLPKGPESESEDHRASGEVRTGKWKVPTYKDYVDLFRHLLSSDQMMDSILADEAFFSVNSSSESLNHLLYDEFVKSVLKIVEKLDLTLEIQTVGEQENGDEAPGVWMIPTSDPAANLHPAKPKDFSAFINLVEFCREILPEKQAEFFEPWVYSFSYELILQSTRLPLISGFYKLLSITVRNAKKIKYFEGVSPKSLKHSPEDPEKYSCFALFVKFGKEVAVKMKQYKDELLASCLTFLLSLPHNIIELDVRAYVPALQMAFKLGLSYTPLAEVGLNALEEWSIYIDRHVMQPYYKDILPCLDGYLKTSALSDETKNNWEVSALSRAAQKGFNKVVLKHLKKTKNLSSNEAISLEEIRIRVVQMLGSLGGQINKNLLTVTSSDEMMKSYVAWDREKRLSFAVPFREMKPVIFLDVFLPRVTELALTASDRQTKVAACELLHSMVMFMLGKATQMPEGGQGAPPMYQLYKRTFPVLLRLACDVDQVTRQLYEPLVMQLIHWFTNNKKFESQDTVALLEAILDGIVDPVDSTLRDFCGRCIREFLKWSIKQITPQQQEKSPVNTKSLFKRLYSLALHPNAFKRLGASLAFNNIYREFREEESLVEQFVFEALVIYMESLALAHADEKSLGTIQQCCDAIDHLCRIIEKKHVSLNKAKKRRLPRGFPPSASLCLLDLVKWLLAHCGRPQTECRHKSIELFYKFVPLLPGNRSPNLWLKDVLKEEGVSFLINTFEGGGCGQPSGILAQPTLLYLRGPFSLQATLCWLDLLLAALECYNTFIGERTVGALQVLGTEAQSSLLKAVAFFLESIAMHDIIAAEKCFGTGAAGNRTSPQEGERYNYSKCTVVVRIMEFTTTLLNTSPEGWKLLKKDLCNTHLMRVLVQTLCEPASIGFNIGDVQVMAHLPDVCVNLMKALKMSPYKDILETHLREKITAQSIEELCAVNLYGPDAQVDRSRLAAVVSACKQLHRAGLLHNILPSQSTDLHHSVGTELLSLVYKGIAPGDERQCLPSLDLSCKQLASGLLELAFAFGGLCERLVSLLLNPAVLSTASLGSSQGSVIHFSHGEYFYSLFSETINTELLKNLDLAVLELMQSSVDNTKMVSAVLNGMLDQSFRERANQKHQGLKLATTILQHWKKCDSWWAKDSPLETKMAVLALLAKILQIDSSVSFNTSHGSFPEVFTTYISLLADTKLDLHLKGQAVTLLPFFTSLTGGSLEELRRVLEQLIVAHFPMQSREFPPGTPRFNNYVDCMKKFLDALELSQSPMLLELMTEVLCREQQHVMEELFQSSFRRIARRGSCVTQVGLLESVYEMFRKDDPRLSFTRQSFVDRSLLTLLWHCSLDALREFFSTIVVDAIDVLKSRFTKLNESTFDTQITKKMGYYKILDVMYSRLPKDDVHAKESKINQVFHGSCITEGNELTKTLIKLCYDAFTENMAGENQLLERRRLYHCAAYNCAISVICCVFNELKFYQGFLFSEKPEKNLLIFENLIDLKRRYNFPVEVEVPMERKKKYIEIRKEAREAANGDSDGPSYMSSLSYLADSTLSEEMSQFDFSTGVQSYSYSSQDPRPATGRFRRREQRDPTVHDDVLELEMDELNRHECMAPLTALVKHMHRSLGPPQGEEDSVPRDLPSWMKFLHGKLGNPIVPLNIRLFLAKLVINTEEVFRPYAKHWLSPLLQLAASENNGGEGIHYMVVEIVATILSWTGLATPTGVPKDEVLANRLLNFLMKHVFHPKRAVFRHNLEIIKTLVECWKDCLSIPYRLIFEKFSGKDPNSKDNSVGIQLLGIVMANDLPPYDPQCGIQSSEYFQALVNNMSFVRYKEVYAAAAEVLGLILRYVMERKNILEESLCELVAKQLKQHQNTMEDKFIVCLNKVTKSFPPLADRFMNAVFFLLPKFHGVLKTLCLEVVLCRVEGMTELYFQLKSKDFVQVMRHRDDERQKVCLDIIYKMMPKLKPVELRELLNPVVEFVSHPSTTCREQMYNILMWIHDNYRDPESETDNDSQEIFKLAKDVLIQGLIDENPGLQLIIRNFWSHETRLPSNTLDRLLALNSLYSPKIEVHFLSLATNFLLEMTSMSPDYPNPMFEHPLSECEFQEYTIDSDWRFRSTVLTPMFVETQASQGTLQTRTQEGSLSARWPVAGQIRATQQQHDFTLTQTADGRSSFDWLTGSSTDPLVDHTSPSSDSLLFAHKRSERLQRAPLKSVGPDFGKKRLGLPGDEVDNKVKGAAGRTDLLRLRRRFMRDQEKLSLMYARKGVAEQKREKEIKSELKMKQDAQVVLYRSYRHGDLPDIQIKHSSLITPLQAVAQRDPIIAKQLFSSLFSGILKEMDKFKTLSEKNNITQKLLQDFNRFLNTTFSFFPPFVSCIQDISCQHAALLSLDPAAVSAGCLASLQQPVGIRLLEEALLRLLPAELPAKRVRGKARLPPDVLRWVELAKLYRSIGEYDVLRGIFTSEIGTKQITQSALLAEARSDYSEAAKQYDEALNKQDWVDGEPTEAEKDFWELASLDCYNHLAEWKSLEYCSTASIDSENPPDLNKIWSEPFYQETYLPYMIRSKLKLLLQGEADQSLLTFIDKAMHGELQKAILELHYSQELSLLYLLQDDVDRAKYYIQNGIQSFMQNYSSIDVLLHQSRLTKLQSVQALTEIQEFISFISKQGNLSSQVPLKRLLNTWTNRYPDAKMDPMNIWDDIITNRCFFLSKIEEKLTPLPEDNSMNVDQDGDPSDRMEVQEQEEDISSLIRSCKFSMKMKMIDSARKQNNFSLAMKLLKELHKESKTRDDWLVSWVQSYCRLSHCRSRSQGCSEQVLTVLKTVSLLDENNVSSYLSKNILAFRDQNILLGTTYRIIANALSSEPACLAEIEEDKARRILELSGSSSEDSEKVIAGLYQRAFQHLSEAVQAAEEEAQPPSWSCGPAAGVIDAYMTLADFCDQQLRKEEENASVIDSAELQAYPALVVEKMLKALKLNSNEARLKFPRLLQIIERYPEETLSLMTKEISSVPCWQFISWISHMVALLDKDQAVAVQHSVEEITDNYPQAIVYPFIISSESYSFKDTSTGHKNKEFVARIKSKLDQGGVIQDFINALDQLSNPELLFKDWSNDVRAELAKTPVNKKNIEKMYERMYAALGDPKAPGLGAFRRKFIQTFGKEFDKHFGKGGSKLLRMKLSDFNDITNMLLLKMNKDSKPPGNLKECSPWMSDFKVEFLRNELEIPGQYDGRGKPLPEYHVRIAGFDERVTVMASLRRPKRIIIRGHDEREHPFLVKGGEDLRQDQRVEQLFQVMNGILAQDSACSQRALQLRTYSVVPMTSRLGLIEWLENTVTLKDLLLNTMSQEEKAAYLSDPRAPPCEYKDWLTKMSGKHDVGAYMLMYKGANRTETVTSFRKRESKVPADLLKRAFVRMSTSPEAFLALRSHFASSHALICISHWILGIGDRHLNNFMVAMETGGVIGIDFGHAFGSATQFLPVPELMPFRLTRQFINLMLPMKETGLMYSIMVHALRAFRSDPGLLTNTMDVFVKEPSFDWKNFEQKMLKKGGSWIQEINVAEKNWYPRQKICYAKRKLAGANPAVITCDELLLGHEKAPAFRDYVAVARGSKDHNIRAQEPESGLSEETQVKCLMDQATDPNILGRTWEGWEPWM

The assay concerns the target DNA-dependent protein kinase catalytic subunit (Homo sapiens, UniProt P78527). Description: Inhibition of DNA-dependent protein kinase.
By pIC50 is commonly meant the IC50 on a negative log10 scale, so that one unit is a factor of ten. `O=c1cc(N2CCOCC2)oc2c(-c3ccc(-c4ccccc4)s3)cccc12` gave a pIC50 of 6.40.

Compound `Nc1cc(C(=O)O)cc(-c2cccc(-c3cccc4c(=O)cc(N5CCOCC5)oc34)c2)c1` had a pIC50 of 6.29.

`Cn1cncc1-c1cccc(-c2cccc3c(=O)cc(N4CCOCC4)oc23)c1` gave a pIC50 of 5.91.

With `NCc1ccc(-c2cccc(-c3cccc4c(=O)cc(N5CCOCC5)oc34)c2)cc1`, the pIC50 is 5.72.

Regarding `O=c1cc(N2CCOCC2)oc2c(-c3cccc(-c4ccoc4)c3)cccc12`, the pIC50 is 6.57.

`O=c1cc(N2CCOCC2)oc2c(-c3cccc(-c4nccs4)c3)cccc12` had a pIC50 of 6.31.

`Cc1ccsc1-c1cccc(-c2cccc3c(=O)cc(N4CCOCC4)oc23)c1`: the pIC50 is 6.44.

`O=c1cc(N2CCOCC2)oc2c(-c3cccc(-c4ccccn4)c3)cccc12` showed a pIC50 of 6.06.

The compound `O=c1cc(N2CCOCC2)oc2c(-c3cccc(-c4ccncc4)c3)cccc12` had a pIC50 of 6.29.

Compound `O=c1cc(N2CCOCC2)oc2c(-c3ncc(-c4ccccc4)s3)cccc12` had a pIC50 of 6.43. This pIC50 and that of the compound before are within 0.2 log units of each other.

Consider `O=c1cc(N2CCOCC2)oc2c(-c3cccc(-c4ccsc4)c3)cccc12`, for which the pIC50 was 7.70. This pIC50 is 1.27 log units higher than that of the compound before.

`O=c1cc(N2CCOCC2)oc2c(-c3cccc(-c4cc[nH]c4)c3)cccc12` had a pIC50 of 5.74.

Compound `O=c1cc(N2CCOCC2)oc2c(-c3cccc(-c4ccc(O)cc4)c3)cccc12` showed a pIC50 of 6.85.

For the compound `O=c1cc(N2CCOCC2)oc2c(-c3ccccc3)cccc12` [LY-294002], the pIC50 is 5.80.

Compound `COC(=O)c1cc(N)cc(-c2cccc(-c3cccc4c(=O)cc(N5CCOCC5)oc34)c2)c1` gave a pIC50 of 6.59.

`O=c1cc(N2CCOCC2)oc2c(-c3cccc(-c4ncccn4)c3)cccc12` showed a pIC50 of 5.52.

On to `O=c1cc(N2CCOCC2)oc2c(-c3cc(-c4ccccc4)cs3)cccc12`, for which the negative logarithm of the IC50 (pIC50) is 7.05.

In turn, `O=c1cc(N2CCOCC2)oc2c(-c3cccc4c3sc3ccccc34)cccc12` showed a pIC50 of 7.92. This pIC50 is 0.87 log units higher than that of the compound before.

Compound `O=c1cc(N2CCOCC2)oc2c(-c3cccc(-c4cncnc4)c3)cccc12` showed a pIC50 of 5.80.

`O=c1cc(N2CCOCC2)oc2c(-c3cccc(-c4ccccc4)c3)cccc12` had a pIC50 of 6.74.

`O=c1cc(N2CCOCC2)oc2c(-c3cccc(-c4ccc(CO)cc4)c3)cccc12`: the pIC50 is 6.00.

Compound `O=Cc1ccc(-c2cccc(-c3cccc4c(=O)cc(N5CCOCC5)oc34)c2)cc1` showed a pIC50 of 5.96.

Regarding `O=c1cc(N2CCOCC2)oc2c(-c3cccc(-c4cccs4)c3)cccc12`, the pIC50 is 7.74. This pIC50 lies 1.78 log units higher than the previous one.

Compound `Cc1cscc1-c1cccc(-c2cccc3c(=O)cc(N4CCOCC4)oc23)c1` gave a pIC50 of 6.19.

For `Cc1ccc(-c2cccc(-c3cccc4c(=O)cc(N5CCOCC5)oc34)c2)s1`, the pIC50 was 5.97.

In turn, `N#Cc1ccc(-c2cccc(-c3cccc4c(=O)cc(N5CCOCC5)oc34)c2)cc1` gave a pIC50 of 5.83.

In turn, `COc1ccc(-c2cccc(-c3cccc4c(=O)cc(N5CCOCC5)oc34)c2)cc1` gave a pIC50 of 6.08.

The compound `Cn1ccnc1-c1cccc(-c2cccc3c(=O)cc(N4CCOCC4)oc23)c1` had a pIC50 of 5.52.

Consider `O=c1cc(N2CCOCC2)oc2c(-c3cccc(-c4ccco4)c3)cccc12`, for which the pIC50 is 6.42.

Compound `Cc1cc(-c2cccc(-c3cccc4c(=O)cc(N5CCOCC5)oc34)c2)cs1` showed a pIC50 of 5.95.

The values above are taken from ChEMBL document CHEMBL1156725, “8-Biarylchromen-4-one inhibitors of the DNA-dependent protein kinase (DNA-PK)” (Bioorg Med Chem Lett, 2008).
